Laboratory results published in patent publication US9227971B2, “Pyrazolo[1,5-a]pyrimidine compounds as mTOR inhibitors” (Merck Sharp & Dohme Corp., priority 2010, dated 2016).
Like-named read-outs stand apart in the source and are kept apart here.

Columns and labels:
[1] = test system: phosphorylated AKT Ser473 (pAKT S473), mTORC2 activity, PC3 cells; test: mTOR target engagement assay, immunofluorescent cell-based, pAKT S473 readout (mTORC2 activity); conditions: Homo sapiens
How it was run: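 After blocking, cells were stained overnight at 4 °C with anti-pAKT S473 antibody, then a fluorescent secondary; inhibition was read as reduced fluorescence intensity.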

[2] = test system: phosphorylated 4E-BP1 Thr37/46 (p4E-BP1 Thr37/46), mTORC1 activity, PC3 cells; test: mTOR target engagement assay, immunofluorescent cell-based, p4E-BP1 Thr37/46 readout (mTORC1 activity); conditions: Homo sapiens, read-out: p4E-BP1 Thr37/46 IC50
How it was run: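 Read-out is fluorescence intensity of immunostained p4E-BP1 Thr37/46 in fixed PC3 cells, fitted to a logistic curve for IC50 with DMSO-only wells as top. Cells had been exposed to serial compound dilutions for ninety minutes at 37° C in 5% FBS medium with 0.25% DMSO.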

[3] = PC-3, PC3 cells, compound treatment ninety minutes at 37° C.

`COc1ccc(-c2ccc(-c3cnn4c(N)c(C(C)=O)c([C@@H]5C[C@H]6CC[C@@H](C5)N6C(=O)C(C)(CO)CO)nc34)cn2)cc1F` [Compound 1.1.59, 1-((1R,3s,5S)-3-(6-acetyl-7-amino-3-(6-(3-fluoro-4-methoxyphenyl)pyridin-3-yl)pyrazolo[1,5-a]pyrimidin-5-yl)-8-azabicyclo[3.2.1]octan-8-yl)-3-hydroxy-2-(hydroxymethyl)-2-methylpropan-1-one] was tested, and the IC50 [1, 3] was 0.001 to 0.1 µM and the IC50 [2, 3] was 0.001 to 0.1 µM.

`COc1ccc(-c2ccc(-c3cnn4c(N)c(S(C)(=O)=O)c([C@@H]5C[C@H]6CC[C@@H](C5)N6C(=O)c5nnc[nH]5)nc34)cn2)cc1` [Compound 3.33, ((1R,3s,5S)-3-(7-amino-3-(6-(4-methoxyphenyl)pyridin-3-yl)-6-(methylsulfonyl)pyrazolo[1,5-a]pyrimidin-5-yl)-8-azabicyclo[3.2.1]octan-8-yl)(4H-1,2,4-triazol-3-yl)methanone] was tested, and the IC50 ([1]; PC-3, Table 3-1, PC3 cells) was 0.001 to 0.1 µM and the IC50 ([2]; PC-3, Table 3-1, PC3 cells) was 0.001 to 0.1 µM.

`CC(=O)c1c([C@@H]2C[C@H]3CC[C@@H](C2)N3C(=O)CO)nc2c(-c3cnc(-c4cc[nH]n4)c(F)c3)cnn2c1N` [Compound 1.1.111, 1-((1R,3s,5S)-3-(6-acetyl-7-amino-3-(5-fluoro-6-(1H-pyrazol-3-yl)pyridin-3-yl)pyrazolo[1,5-a]pyrimidin-5-yl)-8-azabicyclo[3.2.1]octan-8-yl)-2-hydroxyethanone] gave an IC50 [1, 3] of 1 to 10 µM and an IC50 [2, 3] of 1 to 10 µM.

For `CC(=O)c1c([C@@H]2C[C@H]3CC[C@@H](C2)N3C(=O)c2nnc[nH]2)nc2c(-c3ccc(-n4ccc(C)n4)nc3)cnn2c1N` [Compound 1.1.136, 1-(5-((1R,3s,5S)-8-(4H-1,2,4-triazole-3-carbonyl)-8-azabicyclo[3.2.1]octan-3-yl)-7-amino-3-(6-(3-methyl-1H-pyrazol-1-yl)pyridin-3-yl)pyrazolo[1,5-a]pyrimidin-6-yl)ethanone], the IC50 [1, 3] was 0.001 to 0.1 µM and the IC50 [2, 3] was 0.1 to 1 µM.

`[2H]C([2H])([2H])Oc1ccc(-c2ccc(-c3cnn4c(N)c(C(C)=O)c([C@@H]5C[C@H]6CC[C@@H](C5)N6C(=O)CO)nc34)cn2)cc1` [Compound 1.1.78, 1-((1R,3s,5S)-3-(6-acetyl-7-amino-3-(6-(4-methoxy-(D3)-phenyl)pyridin-3-yl)pyrazolo[1,5-a]pyrimidin-5-yl)-8-azabicyclo[3.2.1]octan-8-yl)-2-hydroxyethanone] gave an IC50 [1, 3] of 0.001 to 0.1 µM and an IC50 [2, 3] of 0.001 to 0.1 µM.

For `Cc1cc(C(=O)N2[C@@H]3CC[C@H]2C[C@H](c2nc4c(-c5ccc(-c6ccccc6)nc5)ccn4c(N)c2S(C)(=O)=O)C3)[nH]n1` [Compound 3.81, ((1R,3s,5S)-3-(7-amino-6-(methyslulfonyl)-3-(6-phenylpyridin-3-yl)pyrazolo[1,5-a]pyrimidin-5-yl)-8-azabicyclo[3.2.1]octan-8-yl)(3-methyl-1H-pyrazol-5-yl)methanone], the IC50 ([1]; PC-3, Table 3-1, PC3 cells) was 0.1 to 1 µM and the IC50 ([2]; PC-3, Table 3-1, PC3 cells) was 0.1 to 1 µM.

For `COc1cc(F)c(-c2ccc(-c3cnn4c(N)c(C(C)=O)c([C@@H]5C[C@H]6CC[C@@H](C5)N6C(=O)c5nnc[nH]5)nc34)cn2)cc1F` [Compound 1.1.72, 1-(5-((1R,3s,5S)-8-(4H-1,2,4-triazole-3-carbonyl)-8-azabicyclo[3.2.1]octan-3-yl)-7-amino-3-(6-(2,5-difluoro-4-methoxyphenyl)pyridin-3-yl)pyrazolo[1,5-a]pyrimidin-6-yl)ethanone], the IC50 [1, 3] was 0.001 to 0.1 µM and the IC50 [2, 3] was 0.001 to 0.1 µM.

Work on `COc1ccc(-c2ccc(-c3cnn4c(N)cc([C@@H]5C[C@H]6CC[C@@H](C5)N6C(=O)c5nnc[nH]5)nc34)cn2)cc1CO` [Compound 2.6, ((1R,3s,5S)-3-(7-amino-3-(6-(3-(hydroxymethyl)-4-methoxyphenyl)pyridin-3-yl)pyrazolo[1,5-a]pyrimidin-5-yl)-8-azabicyclo[3.2.1]octan-8-yl)(4H-1,2,4-triazol-3-yl)methanone] yielded an IC50 [1, 3] of 0.1 to 1 µM and an IC50 [2, 3] of 0.1 to 1 µM.

Work on `Cc1cnc(-c2ccc(-c3cnn4c(N)c(S(C)(=O)=O)c([C@@H]5C[C@H]6CC[C@@H](C5)N6C(=O)C(O)C(F)(F)F)nc34)cn2)s1` (stereo partly drawn) [Compound 3.187, 1-((1R,3s,5S)-3-(7-amino-6-(methylsulfonyl)-3-(6-(5-methylthiazol-2-yl)pyridin-3-yl)pyrazolo[1,5-a]pyrimidin-5-yl)-8-azabicyclo[3.2.1]octan-8-yl)-3,3,3-trifluoro-2-hydroxypropan-1-one] yielded an IC50 ([1]; PC-3, Table 3-1, PC3 cells) of 1 to 10 µM and an IC50 ([2]; PC-3, Table 3-1, PC3 cells) of 1 to 10 µM.

Molecule `CS(=O)(=O)c1c([C@@H]2C[C@H]3CC[C@@H](C2)N3C(=O)[C@@H]2CCCN2)nc2c(-c3ccc(-c4ccccc4)nc3)cnn2c1N` [Compound 3.206, ((1R,3R,5S)-3-(7-amino-6-(methylsulfonyl)-3-(6-phenylpyridin-3-yl)pyrazolo[1,5-a]pyrimidin-5-yl)-8-azabicyclo[3.2.1]octan-8-yl)((S)-pyrrolidin-2-yl)methanone] has an IC50 ([1]; PC-3, Table 3-1, PC3 cells) of 1 to 10 µM and an IC50 ([2]; PC-3, Table 3-1, PC3 cells) of 1 to 10 µM.

`CC(=O)c1c([C@@H]2C[C@H]3CC[C@@H](C2)N3C(=O)C(C)F)nc2c(-c3ccc(-c4ncc[nH]4)nc3)cnn2c1N` (stereo partly drawn) [Compound 6.23, 1-((1R,3s,5S)-3-(3-(6-(1H-imidazol-2-yl)pyridin-3-yl)-6-acetyl-7-aminopyrazolo[1,5-a]pyrimidin-5-yl)-8-azabicyclo[3.2.1]octan-8-yl)-2-fluoropropan-1-one] gave an IC50 ([1]; PC-3, Table 6-1, PC3 cells) of 0.001 to 0.1 µM and an IC50 ([2]; PC-3, Table 6-1, PC3 cells) of 0.1 to 1 µM.

For `CC(=O)c1c([C@@H]2C[C@H]3CC[C@@H](C2)N3C(=O)c2nnc(N)[nH]2)nc2c(-c3ccc(C(N)(C(F)(F)F)C(F)(F)F)nc3)cnn2c1N` [Compound 7.83], the IC50 ([1]; PC-3, PC3 cells) was 1 to 10 µM and the IC50 ([2]; PC-3, PC3 cells) was 0.1 to 1 µM.

Work on `Nc1nnc(C(=O)N2[C@@H]3CC[C@H]2C[C@H](c2nc4c(-c5ccc(C(N)(C(F)(F)F)C(F)(F)F)nc5)cnn4c(N)c2C2CC2)C3)[nH]1` [Compound 7.88, ((1R,3s,5S)-3-(7-amino-3-(6-(2-amino-1,1,1,3.3,3-hexafluoropropan-2-yl)pyridin-3-yl)-6-cyclopropylpyrazolo [1,5-a]pyrimidin-5-yl)-8-azabicyclo[3.2.1]octan-8-yl)(5-amino-4H-1,2,4-triazol-3-yl)methanone] yielded an IC50 ([1]; PC-3, PC3 cells) of 1 to 10 µM and an IC50 ([2]; PC-3, PC3 cells) of 1 to 10 µM.

Molecule `CC(=O)c1c([C@@H]2C[C@H]3CC[C@@H](C2)N3C(=O)c2nnc[nH]2)nc2c(-c3ccc([C@@H](C)O)cc3)cnn2c1N` [Compound 7.21, 1-(5-((1R,3s,5S)-8-(4H-1,2,4-triazole-3-carbonyl)-8-azabicyclo[3.2.1]octan-3-yl)-7-amino-3-(4-((R)-1-hydroxyethyl)phenyl)pyrazolo[1,5-a]pyrimidin-6-yl)ethanone] has an IC50 [1, 3] of 0.001 to 0.1 µM and an IC50 [2, 3] of 0.001 to 0.1 µM.

With `CC(C)(O)c1ncc(-c2cnn3c(N)c(S(C)(=O)=O)c([C@@H]4C[C@H]5CC[C@@H](C4)N5C(=O)c4nnc[nH]4)nc23)cc1Cl` [Compound 3.158, ((1R,3s,5S)-3-(7-amino-3-(5-chloro-6-(2-hydroxypropan-2-yl)pyridin-3-yl)-6-(methylsulfonyl)pyrazolo[1,5-a]pyrimidin-5-yl)-8-azabicyclo[3.2.1]octan-8-yl)(4H-1,2,4-triazol-3-yl)methanone] the IC50 ([1]; PC-3, Table 3-1, PC3 cells) was 0.001 to 0.1 µM and the IC50 ([2]; PC-3, Table 3-1, PC3 cells) was 0.001 to 0.1 µM.

Work on `CC(=O)c1c([C@@H]2C[C@H]3CC[C@@H](C2)N3C(=O)[C@@H](C)O)nc2c(-c3ccc(-c4ccccc4)nc3)cnn2c1N` [Compound 1.1.2] yielded an IC50 [1, 3] of 0.001 to 0.1 µM and an IC50 [2, 3] of 0.1 to 1 µM.

Work on `Nc1c(C2CC2)c([C@H]2CC3CC[C@H](C2)N3C(=O)c2nnc[nH]2)nc2c(-c3cnc4c(c3)CCC4O)cnn12` (stereo partly drawn) [Compound 7.61, ((1R,3s,5S)-3-(7-amino-6-cyclopropyl-3-(7-hydroxy-6,7-dihydro-5H-cyclopenta[b]pyridin-3-yl)pyrazolo[1,5-a]pyrimidin-5-yl)-8-azabicyclo[3.2.1]octan-8-yl)(4H-1,2,4-triazol-3-yl)methanone] yielded an IC50 ([1]; PC-3, PC3 cells) of 0.001 to 0.1 µM and an IC50 ([2]; PC-3, PC3 cells) of 0.001 to 0.1 µM.

Molecule `CC(=O)c1c([C@@H]2C[C@H]3CC[C@@H](C2)N3C(=O)CO)nc2c(-c3ccc(-c4ncc[nH]4)c(F)c3)cnn2c1N` [Compound 6.40, 1-((1R,3s,5S)-3-(6-acetyl-7-amino-3-(3-fluoro-4-(1H-imidazol-2-yl)phenyl)pyrazolo[1,5-a]pyrimidin-5-yl)-8-azabicyclo[3.2.1]octan-8-yl)-2-hydroxyethanone] has an IC50 ([1]; PC-3, Table 6-1, PC3 cells) of 0.001 to 0.1 µM and an IC50 ([2]; PC-3, Table 6-1, PC3 cells) of 0.001 to 0.1 µM.

With `Nc1c(Br)c([C@@H]2C[C@H]3CC[C@@H](C2)N3C(=O)c2nc[nH]n2)nc2c(-c3ccc(-c4ccccc4)nc3)cnn12` [Compound 2.1, ((1R,3s,5S)-3-(7-amino-6-bromo-3-(6-phenylpyridin-3-yl)pyrazolo[1,5-a]pyrimidin-5-yl)-8-azabicyclo[3.2.1]octan-8-yl)(1H-1,2,4-triazol-3-yl)methanone] the IC50 [1, 3] was 0.1 to 1 µM and the IC50 [2, 3] was 0.001 to 0.1 µM.

In the case of `CS(=O)(=O)c1c([C@@H]2C[C@H]3CC[C@@H](C2)N3C(=O)c2nnc[nH]2)nc2c(-c3cn[nH]c3)cnn2c1N` [Compound 3.113, ((1R,3s,5S)-3-(7-amino-6-(methylsulfonyl)-3-(1H-pyrazol-4-yl)pyrazolo[1,5-a]pyrimidin-5-yl)-8-azabicyclo[3.2.1]octan-8-yl)(4H-1,2,4-triazol-3-yl)methanone], the IC50 ([1]; PC-3, Table 3-1, PC3 cells) is reported as greater than 10 µM and the IC50 ([2]; PC-3, Table 3-1, PC3 cells) is reported as 1 to 10 µM.

For `CS(=O)(=O)c1c([C@@H]2C[C@H]3CC[C@@H](C2)N3C(=O)c2cn[nH]c2)nc2c(-c3ccc(-c4ccccc4)nc3)cnn2c1N` [Compound 3.83, ((1R,3s,5S)-3-(7-amino-6-(methylsulfonyl)-3-(6-phenylpyridin-3-yl)pyrazolo[1,5-a]pyrimidin-5-yl)-8-azabicyclo[3.2.1]octan-8-yl)(1H-pyrazol-4-yl)methanone], the IC50 ([1]; PC-3, Table 3-1, PC3 cells) was 0.001 to 0.1 µM and the IC50 ([2]; PC-3, Table 3-1, PC3 cells) was 0.001 to 0.1 µM.
